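Following 48 hours of exposure in 96-well plates, responses at five concentrations were used to interpolate endpoints linearly. GI50: concentration for 50% inhibition of growth. TGI: concentration producing complete growth inhibition.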
Experiments:
Assay in all cases: inhibition of tumour cell growth, NCI panel, 48 h
HCC-2998 colon = tested on: HCC-2998 colon
SR leukemia = tested on: SR leukemia
CCRF-CEM leukemia = tested on: CCRF-CEM leukemia
RXF 393 renal = tested on: RXF 393 renal
KM12 colon = tested on: KM12 colon
SF-268 CNS = tested on: SF-268 CNS
NCI-H226 lung = tested on: NCI-H226 lung
PC-3 prostate = tested on: PC-3 prostate
OVCAR-4 ovarian = tested on: OVCAR-4 ovarian
NCI-H460 lung = tested on: NCI-H460 lung

Structure (SMILES)	GI50 (HCC-2998 colon) [µM]	TGI (HCC-2998 colon) [µM]	GI50 (SR leukemia) [µM]	TGI (SR leukemia) [µM]	GI50 (CCRF-CEM leukemia) [µM]	TGI (CCRF-CEM leukemia) [µM]	GI50 (RXF 393 renal) [µM]	TGI (RXF 393 renal) [µM]	GI50 (KM12 colon) [µM]	TGI (KM12 colon) [µM]	GI50 (SF-268 CNS) [µM]	TGI (SF-268 CNS) [µM]	GI50 (NCI-H226 lung) [µM]	TGI (NCI-H226 lung) [µM]	GI50 (PC-3 prostate) [µM]	TGI (PC-3 prostate) [µM]	GI50 (OVCAR-4 ovarian) [µM]	TGI (OVCAR-4 ovarian) [µM]	GI50 (NCI-H460 lung) [µM]	TGI (NCI-H460 lung) [µM]
C=C1C(O)C2C(=C(C)C13CC3)C(=O)C(C)(C)C2OC (stereo not given)	> 100	> 100	38	> 100	78.3	> 100	> 100	> 100	> 100	> 100	> 100	> 100	> 100	> 100	> 100	> 100	> 100	> 100	> 100	> 100
COc1ccc(-c2noc(N)c2-c2cc(OC)c3c(c2)OCO3)cc1	3.68	> 33.9	0.523	> 51.2	1.45	> 35.8	2.6	15	1.97	> 100	5.47	98.9	18	> 100	3.36	> 100	24.3	> 100	3.13	28
CC1=NC(C)(COC(=O)C2(C)NC(C)(CO)CO2)COC1=O (stereo not given)		> 100		> 100		> 100		> 100		> 100		> 100		> 100		> 100		> 100		> 100
O=[N+]([O-])c1ccc(Sc2c3ccccc3nc3ccccc23)cn1		> 81.7		> 100		8.3		60.3		95.1		52.4		> 100		38.1		75.9		> 100
Oc1ccc(Oc2cnc3ccccc3n2)cc1	> 100	> 100	78.5	> 100	24.2	> 100	34.3	> 100	45	> 100	50.3	> 100	> 100	> 100	54.7	> 100	60.3	> 100	> 100	> 100
COc1ccc(-c2cc(Nc3ccnc(N4CCOCC4)n3)on2)cc1	0.461	10.6	0.0566	> 100	0.267	> 34.5	0.16	0.564	0.0893	12.3	1.85	18.1	0.751	9.82	0.241	24.2	1.72	18.5	0.24	10.4
CCc1nc(Cl)c(Cl)c(Cl)n1		> 100		> 100		> 100		> 100		> 100		> 100		> 100		> 100		> 100		> 100
CC(C)(C)c1cc(C(=O)/C=C/c2ccc(C(=O)O)cc2)cc(C(C)(C)C)c1		3.88		6.16		9.48		4.34		5.75		6.82		4.22		16.4		19		7.36
